Data published in article PMC10096453, “One-Pot Synthesis and Evaluation of Antioxidative Stress and Anticancer Properties of an Active Chromone Derivative” (Molecules, 2023).

What was measured:
Format in all cases: cell-based
HEK293 cells = assay: Protection against H2O2-induced cytotoxicity (MTT); conditions: 100 μM; HEK293, 7.5 mM H2O2 30 min
Procedure: The synthesized compounds were examined for the ability of the compounds to protect cells exposed to oxidative stress. Six active compounds from the antioxidant test, 2b, 2d, 2e, 2f, 2j, and 3i, were selected to study the ability of oxidative stress protection. The HEK293 cells were treated with 7.5 mM hydrogen peroxide for 30 min; samples and quercetin were added, and cell viability was investigated at 12 and 24 h treatment. The percentage of viable cells in each sample was calculated using the untreated cell as 100% survival (Figure 3).
Figure 3 Protective effect of synthesized compounds on H2O2-induced cytotoxicity in cultured HEK cells (means ± SD, n = 3). Data (cell viability, measured by the MTT assay) were expressed as a percentage of the control group, which is 100%. The results were calculated from three independent experiments and are shown as mean ± SD. Compared to the H2O2 model group, the p values were calculated using a one-way ANOVA with Tukey (Turkey HSD) multiple comparison analysis; * p < 0.05 at 12 h treatment, # p < 0.05 at 24 h treatment.

HeLa cells [1] = assay: Cellular ROS assay (ROS deep red fluorescence kit); conditions: pretreatment 50, 100, 150 μM for 24 h; 5 mM H2O2 30 min
Procedure: ROS is the main contributor to cell death. These reactive molecules are formed by several mechanisms and can be detected by various techniques. In order to investigate the level of cellular ROS after treatment with compounds, the accumulation of intracellular ROS in cells was quantified with a cellular ROS assay kit (ab186029, Abcam, Boston, USA) fluorescence assay. After pretreatment with 2f, 2j, and 3i at 50, 100, and 150 μM for 24 h, cell stress was induced with 5 mM hydrogen peroxide for 30 min. The cells in each well were collected and resuspended with a serum-free medium containing the ROS red probe. Subsequently, cells were incubated at 37 °C for 30 min in the dark, and fluorescence was read at Ex/Em = 650/675 nm.
In this study, Hela cells were seeded overnight at 20,000 cells/90 µL/well in a black wall/clear bottom 96-well plate. Cells included those untreated (control) and those pre-treated with compounds at various concentrations (50, 100, 150 μM) for 24 h. The ROS deep red assay solution (100 μL/well) was added and incubated at 5% CO2, 37 °C incubator for 30 min. The fluorescence signal was monitored at Ex/Em = 650/675 nm (cut off = 665 nm) with bottom read mode within 30 min (cellular ROS assay kit, ab186029, abcam).

HeLa cells [2] = assay: Apoptosis, Annexin V & Dead Cell flow cytometry; conditions: IC50 concentration, 24 h
Procedure: Examining apoptosis induction by some samples was confirmed by the determination of annexin V (p ≤ 0.05) using the IC50 for 2b, 2e, 2f, 2j, and quercetin in the HeLa cell line (Figure 5a).
HeLa cells were seeded overnight at 1 × 10^5 cells/1.5 mL/well in a 6-well plate. […] The cells were […] and washed with PBS. The collected cells were diluted with serum-free medium to a suitable volume. The 100 μL of cell suspension was added to 100 μL of Muse^TM Annexin V & Dead Cell reagent and incubated for 20 min at room temperature. Cells were analyzed by flow cytometry (Guava Muse Cell Analyzer, Luminex, Austin, TX USA) with Guava suite software 3.4.

Structure (SMILES) | Protection of cells from oxidative stress (HEK293 cells) | Cellular ROS fluorescence intensity vs H2O2-treated cells (HeLa cells [1]) | Apoptosis induction (HeLa cells [2]) | Change in dead phase compared to the control (HeLa cells [2]) | Change in early apoptosis phase compared to the control (HeLa cells [2]) | Change in late apoptosis phase compared to the control (HeLa cells [2]) | Change in live phase compared to the control (HeLa cells [2])
O=C(c1ccccc1)c1c(-c2ccccc2)oc2c(O)c(O)ccc2c1=O [2f, 3-Benzoyl-7,8-dihydroxy-2-phenyl-4H-chromen-4-one] | able to protect cells from oxidative stress | significantly reduced | induced apoptosis in tumor cells | +5.8% | +6.3% | +1.2% | −12.1%
O=C(Oc1ccc2c(=O)c(C(=O)c3ccccc3)c(-c3ccccc3)oc2c1O)c1ccccc1 [2j, 3-Benzoyl-8-hydroxy-4-oxo-2-phenyl-4H-chromen-7-yl benzoate] | able to protect cells from oxidative stress | significantly reduced |  |  |  |  | 
